Measured values reported in patent publication US10532984B2, “Pyridonecarboxylic acid derivative or salt thereof” (priority 2016, dated 2020).
Converted amounts (≈) assume the structure as drawn.

How the values were obtained:
P. aeruginosa 08-05 = assay: Combined antibacterial effect with drug efflux pump inhibitor PAβN, broth microdilution MIC; type: cell-based; details: for P. aeruginosa 08-05 MIC ratio: P. aeruginosa 08-05, PAβN(−) MIC/PAβN(+) MIC; for MIC value P. aeruginosa 08-05 PAβN +: P. aeruginosa 08-05, with PAβN 50 μg/mL; for MIC value P. aeruginosa 08-05 PAβN −: P. aeruginosa 08-05, without PAβN
Description: (§1) The method used was a broth microdilution method according to the standard method of the Japanese Society of Chemotherapy (Chemotherapy, 38 (1), 102, 1990). In the condition which added H-Phe-Arg-βNA, 2HCl (PAβN) (50 μg/mL) as drug efflux pump inhibitor, the minimum inhibitory concentrations (MIC: μg/mL) was measured. The minimum inhibitory concentrations (MIC: μg/mL) of the conventional antimicrobial agents levofloxacin and cefepime as a positive control compound and a negative control compound for the evaluation were also measured similarly. P. aeruginosa is a clinical isolate given by […] Medical Center.

P. aeruginosa 2014-17 = assay: as above; type: cell-based; details: for MIC value P. aeruginosa 2014-17 PAβN +: P. aeruginosa 2014-17, with PAβN 50 μg/mL; for MIC value P. aeruginosa 2014-17 PAβN −: P. aeruginosa 2014-17, without PAβN
Description: as §1

P. aeruginosa PA01 = assay: as above; type: cell-based; details: for MIC value P. aeruginosa PA01 PAβN +: P. aeruginosa PA01, with PAβN 50 μg/mL; for MIC value P. aeruginosa PA01 PAβN −: P. aeruginosa PA01, without PAβN
Description: as §1

MRSA9522 = assay: Antibacterial effect, MIC by standard method of Japanese Society of Chemotherapy; type: cell-based, methicillin-resistant Staphylococcus aureus; details: Staphylococcus aureus
Description: (§2) The minimum inhibitory concentrations (MIC: μg/mL) of the compounds set forth in Table 1 were measured according to the standard method of Japanese Society of Chemotherapy (Japanese Journal of Chemotherapy, 56 (1), 49, 2008). […] P. aeruginosa is a clinical isolate given by Kameda Medical Center. C. difficile is a clinical isolate purchased from International Health Management Associates, Inc. (IHMA).

MRSA9532 = assay: as above; type: cell-based, methicillin-resistant Staphylococcus aureus; details: Staphylococcus aureus
Description: as §2

C. difficile 2015-12 = assay: as above; type: cell-based; details: Clostridioides difficile, 201512; C. difficile 2015-12, clinical isolate
Description: as §2

C. difficile 2015-13 = assay: as above; type: cell-based; details: Clostridioides difficile, 201513; C. difficile 2015-13, clinical isolate
Description: as §2

P. aeruginosa 2014-16 = assay: as above; type: cell-based; details: Pseudomonas aeruginosa, 201416; P. aeruginosa 2014-16, clinical isolate
Description: as §2

Row | Structure (SMILES) | P. aeruginosa 08-05 MIC ratio (P. aeruginosa 08-05) | MIC value P. aeruginosa 08-05 PAβN + (P. aeruginosa 08-05) | MIC value P. aeruginosa 08-05 PAβN − (P. aeruginosa 08-05) | MIC value P. aeruginosa 2014-17 PAβN + (P. aeruginosa 2014-17) | MIC value P. aeruginosa 2014-17 PAβN − (P. aeruginosa 2014-17) | MIC value P. aeruginosa PA01 PAβN + (P. aeruginosa PA01) | MIC value P. aeruginosa PA01 PAβN − (P. aeruginosa PA01) | MIC (MRSA9522) | MIC (MRSA9532) | MIC (C. difficile 2015-12) | MIC (C. difficile 2015-13) | MIC (P. aeruginosa 2014-16)
1 | CO/N=C(\C(=O)N[C@@H]1C(=O)N2C(C(=O)[O-])=C(C[N+]3(C)CCCC3)CS[C@H]12)c1csc(N)n1 [Cefepime, cefepime, reference compound] | 4 | 2 µg/mL | 8 µg/mL | 16 µg/mL | 64 µg/mL | 0.5 µg/mL | 1 µg/mL |  |  |  |  | 
2 | CNC1CN(c2c(F)cc3c(=O)c(C(=O)O)cn(-c4cc(N)c(F)cc4F)c3c2Cl)C1 [Comparative Compound 2, 1-(5-amino-2,4-difluorophenyl)-8-chloro-6-fluoro-7-(3-methylaminoazetidin-1-yl)-4-oxo-1,4-dihydroquinoline-3-carboxylic acid] |  |  |  |  |  |  |  | 1 µg/mL (≈ 2.21 µM) | 2 µg/mL (≈ 4.42 µM) | 8 µg/mL (≈ 17.7 µM) | 4 µg/mL (≈ 8.83 µM) | 16 µg/mL (≈ 35.3 µM)
3 | Cc1c(F)c(N2CC(O)C2)c(Cl)c2c1c(=O)c(C(=O)O)cn2-c1cc(N)c(F)cc1CO [Example 113, 1-[5-Amino-4-fluoro-2-(hydroxymethyl)phenyl]-8-chloro-6-fluoro-7-(3-hydroxyazetidin-1-yl)-5-methyl-4-oxo-1,4-dihydroquinoline-3-carboxylic acid] |  |  |  |  |  |  |  | 1 µg/mL (≈ 2.15 µM) | 1 µg/mL (≈ 2.15 µM) | 0.12 µg/mL (≈ 0.258 µM) | 0.06 µg/mL (≈ 0.129 µM) | 4 µg/mL (≈ 8.59 µM)
4 | C[C@H]1COc2c(N3CCN(C)CC3)c(F)cc3c(=O)c(C(=O)O)cn1c23 [Levofloxacin, levofloxacin, reference compound] | 32 | 0.12 µg/mL | 4 µg/mL | 1 µg/mL | 32 µg/mL | 0.06 µg/mL | 0.5 µg/mL | > 128 µg/mL | > 128 µg/mL | > 128 µg/mL | > 128 µg/mL | > 128 µg/mL
5 | CNC1CN(c2c(F)c(C)c3c(=O)c(C(=O)O)cn(-c4cc(N)c(F)cc4CO)c3c2Cl)C1 [Example 104, 1-[5-Amino-4-fluoro-2-(hydroxymethyl)phenyl]-8-chloro-6-fluoro-5-methyl-7-(3-methylaminoazetidin-1-yl)-4-oxo-1,4-dihydroquinoline-3-carboxylic acid] | 8 | 0.06 µg/mL | 0.5 µg/mL | 0.25 µg/mL | 4 µg/mL | 0.016 µg/mL | 0.12 µg/mL | 1 µg/mL (≈ 2.09 µM) | 1 µg/mL (≈ 2.09 µM) | 1 µg/mL (≈ 2.09 µM) | 0.5 µg/mL (≈ 1.04 µM) | 2 µg/mL (≈ 4.18 µM)

Results, then the compound that gave them:

Row | P. aeruginosa 08-05 MIC ratio (P. aeruginosa 08-05) | MIC value P. aeruginosa 08-05 PAβN + (P. aeruginosa 08-05) | MIC value P. aeruginosa 08-05 PAβN − (P. aeruginosa 08-05) | MIC value P. aeruginosa 2014-17 PAβN + (P. aeruginosa 2014-17) | MIC value P. aeruginosa 2014-17 PAβN − (P. aeruginosa 2014-17) | MIC value P. aeruginosa PA01 PAβN + (P. aeruginosa PA01) | MIC value P. aeruginosa PA01 PAβN − (P. aeruginosa PA01) | MIC (MRSA9522) | MIC (MRSA9532) | MIC (C. difficile 2015-12) | MIC (C. difficile 2015-13) | MIC (P. aeruginosa 2014-16) | Structure (SMILES)
6 | 4 | 0.25 µg/mL | 1 µg/mL | 4 µg/mL | 16 µg/mL | 0.25 µg/mL | 0.25 µg/mL |  |  |  |  |  | CNC1CN(c2c(F)cc3c(=O)c(C(=O)O)cn(-c4cc(N)c(F)cc4CO)c3c2C)C1 [Example 70]
7 | 8 | 0.06 µg/mL | 0.5 µg/mL | 0.25 µg/mL | 2 µg/mL | 0.016 µg/mL | 0.12 µg/mL |  |  |  |  |  | Cc1c(F)c(N2CC(N)C2)c(C)c2c1c(=O)c(C(=O)O)cn2-c1cc(N)c(F)cc1CO [Example 100, 7-(3-Aminoazetidin-1-yl)-1-[5-amino-4-fluoro-2-(hydroxymethyl)phenyl]-5,8-dimethyl-6-fluoro-4-oxo-1,4-dihydroquinoline-3-carboxylic acid]
8 |  |  |  |  |  |  |  | 128 µg/mL (≈ 386 µM) | > 128 µg/mL |  |  |  | O=C(O)c1cn(C2CC2)c2cc(N3CCNCC3)c(F)cc2c1=O [Ciprofloxacin, ciprofloxacin]
9 |  |  |  |  |  |  |  | 4 µg/mL (≈ 9.12 µM) | 4 µg/mL (≈ 9.12 µM) | 16 µg/mL (≈ 36.5 µM) | 8 µg/mL (≈ 18.2 µM) | 8 µg/mL (≈ 18.2 µM) | Nc1cc(-n2cc(C(=O)O)c(=O)c3cc(F)c(N4CC(N)C4)c(Cl)c32)c(F)cc1F [Comparative Compound 1, 7-(3-Aminoazetidin-1-yl)-1-(5-amino-2,4-difluorophenyl)-8-chloro-6-fluoro-4-oxo-1,4-dihydroquinoline-3-carboxylic acid]
